Assay results from patent US9573887B2, “Naphthalene derivative” (Daito Chemix Corporation, priority 2010, dated 2017).
Structures can show the parent of a compound that is named as a salt.

target: T1, Mouse VCP (Mus musculus, UniProt Q01853); experiment: ATPase activity of purified His-tagged VCP, [γ-32P]ATP, liberated phosphate by liquid scintillation; type: biochemical; conditions: compounds of Comparative Examples; determined in the same manner as the Examples
T1 construct: histidine tag (N); made in house; host or cells: Sf-9 insect cells (baculovirus vector pVL1392)
T1 sequence (Q01853 whole entry): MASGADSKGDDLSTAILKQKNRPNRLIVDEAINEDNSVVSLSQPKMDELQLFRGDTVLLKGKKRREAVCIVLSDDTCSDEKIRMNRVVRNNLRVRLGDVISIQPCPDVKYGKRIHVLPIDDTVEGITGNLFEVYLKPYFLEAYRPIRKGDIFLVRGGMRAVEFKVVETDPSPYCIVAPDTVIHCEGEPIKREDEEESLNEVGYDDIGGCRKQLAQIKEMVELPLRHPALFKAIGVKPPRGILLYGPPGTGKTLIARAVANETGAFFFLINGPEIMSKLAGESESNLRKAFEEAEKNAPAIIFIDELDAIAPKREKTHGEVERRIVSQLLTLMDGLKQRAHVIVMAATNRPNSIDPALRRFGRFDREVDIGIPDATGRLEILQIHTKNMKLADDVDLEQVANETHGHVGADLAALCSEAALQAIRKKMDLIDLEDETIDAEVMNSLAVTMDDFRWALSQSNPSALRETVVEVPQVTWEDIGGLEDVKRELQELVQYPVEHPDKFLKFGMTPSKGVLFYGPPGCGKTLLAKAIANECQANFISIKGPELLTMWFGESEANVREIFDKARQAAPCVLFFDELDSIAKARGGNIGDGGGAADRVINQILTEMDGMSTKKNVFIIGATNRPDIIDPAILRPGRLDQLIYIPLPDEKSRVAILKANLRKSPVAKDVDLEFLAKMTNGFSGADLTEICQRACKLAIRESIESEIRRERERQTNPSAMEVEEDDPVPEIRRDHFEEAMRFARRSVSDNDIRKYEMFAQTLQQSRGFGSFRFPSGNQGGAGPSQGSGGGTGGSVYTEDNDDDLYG
Outline: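 Liberated 32P-phosphate, extracted as a molybdate complex and counted by liquid scintillation, was the readout. Reactions used 500 ng Sf-9-expressed, Ni-purified His-VCP (mouse), 100 μM [γ-32P]ATP and varied test concentrations for 10 min at 37° C in HEPES pH 7.4 buffer with Mg2+ and DTT. IC50 derived by curve fitting.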

SMILES	IC50 [nM]
Nc1ccc(/N=N/c2ccccc2)c2ccc(S(=O)(=O)O)cc12 [Example 2, sodium salt]	> 10000

same assay, conditions: compounds of Examples; ATPase inhibitory activity; 500 ng VCP, 100 μM ATP, 37° C., 10 minutes

SMILES	IC50 [nM]
Nc1c(/N=N/c2cccc(F)c2)cc(S(=O)(=O)O)c2ccccc12 [Example 101, 4-amino-3-(3-fluorophenylazo)naphthalene-1-sulfonic acid sodium salt]	1760
Nc1c(/N=N/c2ccc(-c3ccccc3OCCCO)nc2)cc(S(=O)(=O)O)c2ccccc12 [Example 66, 4-amino-3-{6-[2-(3-hydroxypropoxy)phenyl]pyridine-3-ylazo}naphthalene-1-sulfonic acid sodium salt]	232
CCCCOc1ccccc1-c1ccc(/N=N/c2cc(S(=O)(=O)O)c3ccccc3c2N)cn1 [Example 60, 4-amino-3-[6-(2-butoxyphenyl)pyridine-3-ylazo]naphthalene-1-sulfonic acid sodium salt]	250
Nc1c(/N=N/c2ccc(OCC(F)(F)F)nc2)cc(S(=O)(=O)O)c2ccccc12 [Example 5, 4-amino-3-[6-(2,2,2-trifluoroethoxy)pyridine-3-ylazo]naphthalene-1-sulfonic acid sodium salt]	495
Nc1c(/N=N/c2ccccc2Br)cc(S(=O)(=O)O)c2ccccc12 [Example 108, 4-amino-3-(2-bromophenylazo)naphthalene-1-sulfonic acid sodium salt]	288
Nc1c(/N=N/c2cnc3ccccc3c2)cc(S(=O)(=O)O)c2ccccc12 [Example 145, 4-amino-3-(quinoline-3-ylazo)naphthalene-1-sulfonic acid sodium salt]	295
Cc1cc(C)cc(-c2ccc(/N=N/c3cc(S(=O)(=O)O)c4ccccc4c3N)cn2)c1 [Example 35, 4-amino-3-[6-(3,5-dimethylphenyl)pyridine-3-ylazo]naphthalene-1-sulfonic acid sodium salt]	632
Nc1c(/N=N/c2ccc(Cl)cc2Cl)cc(S(=O)(=O)O)c2ccccc12 [Example 111, 4-amino-3-(2,4-dichlorophenylazo)naphthalene-1-sulfonic acid sodium salt]	244
Nc1c(/N=N/c2cccnc2)cc(S(=O)(=O)O)c2ccccc12 [Example 1, 4-amino-3-(pyridine-3-ylazo)naphthalene-1-sulfonic acid sodium salt]	1580
Nc1c(/N=N/c2cccc(C(=O)c3ccccc3)c2)cc(S(=O)(=O)O)c2ccccc12 [Example 130, 4-amino-3-(3-benzoylphenylazo)naphthalene-1-sulfonic acid sodium salt]	260
Nc1c(/N=N/c2ccc(-c3cc(Cl)ccc3O)nc2)cc(S(=O)(=O)O)c2ccccc12 [Example 70, 4-amino-3-[6-(5-chloro-2-hydroxyphenyl)pyridine-3-ylazo]naphthalene-1-sulfonic acid sodium salt]	712
Nc1c(/N=N/c2ccccc2OCc2ccccn2)cc(S(=O)(=O)O)c2ccccc12 [Example 140, 4-amino-3-[2-(pyridine-2-ylmethoxy)phenylazo]naphthalene-1-sulfonic acid sodium salt]	596
Nc1c(/N=N/c2ccc(NC(=O)c3cccs3)cc2)cc(S(=O)(=O)O)c2ccccc12 [Example 97, 4-amino-3-[4-[(2-thienylcarbonyl)amino]phenylazo]-1-naphthalenesulfonic acid sodium salt]	804
Nc1c(/N=N/c2ccc(OCc3ccccn3)cc2)cc(S(=O)(=O)O)c2ccccc12 [Example 136, 4-amino-3-[4-(pyridine-2-ylmethoxy)phenylazo]naphthalene-1-sulfonic acid sodium salt]	601
Nc1c(/N=N/c2cccc([N+](=O)[O-])c2)cc(S(=O)(=O)O)c2ccccc12 [Example 96, 4-amino-3-(3-nitrophenylazo)naphthalene-1-sulfonic acid sodium salt]	1630
Cc1ccc(C)c(-c2ccc(/N=N/c3cc(S(=O)(=O)O)c4ccccc4c3N)cn2)c1 [Example 34, 4-amino-3-[6-(2,5-dimethylphenyl)pyridine-3-ylazo]naphthalene-1-sulfonic acid sodium salt]	274
Nc1c(/N=N/c2cccnc2-c2ccccc2)cc(S(=O)(=O)O)c2ccccc12 [Example 50, 4-amino-3-(2-phenylpyridine-3-ylazo)naphthalene-1-sulfonic acid sodium salt]	468
Nc1c(/N=N/c2ccc(OCc3cccnc3)cc2)cc(S(=O)(=O)O)c2ccccc12 [Example 135, 4-amino-3-[4-(pyridine-3-ylmethoxy)phenylazo]naphthalene-1-sulfonic acid sodium salt]	716
Nc1c(/N=N/c2ccc(C(=O)Nc3ccc(CC(C(=O)O)C(=O)O)cc3)cc2)cc(S(=O)(=O)O)c2ccccc12 [Example 124, 2-{4-[4-(1-amino-4-sulfonaphthalene-2-ylazo)benzoylamino]benzyl}malonic acid trisodium salt]	4010

SMILES	IC50 [nM]
Nc1c(/N=N/c2ccc(-c3ccc(C(F)(F)F)cc3)nc2)cc(S(=O)(=O)O)c2ccccc12 [Example 21, 4-amino-3-[6-(4-trifluoromethylphenyl)pyridine-3-ylazo]naphthalene-1-sulfonic acid sodium salt]	445
Cc1cc(C)cc(-c2ccc(C)cc2-c2ccc(/N=N/c3cc(S(=O)(=O)O)c4ccccc4c3N)cn2)c1 [Example 74, 4-amino-3-[6-(4,3′,5′-trimethylbiphenyl-2-yl)pyridine-3-ylazo]naphthalene-1-sulfonic acid sodium salt]	4000
CCCCOc1c(C=O)cc(C)cc1-c1ccc(/N=N/c2cc(S(=O)(=O)O)c3ccccc3c2N)cn1 [Example 92, 4-amino-3-[6-(3-formyl-2-butoxy-5-methylphenyl)pyridine-3-ylazo]naphthalene-1-sulfonic acid sodium salt]	161
Nc1c(/N=N/c2ccc(Br)cc2)cc(S(=O)(=O)O)c2ccccc12 [Example 110, 4-amino-3-(4-bromophenylazo)naphthalene-1-sulfonic acid sodium salt]	226
Nc1c(/N=N/c2ccccc2Cl)cc(S(=O)(=O)O)c2ccccc12 [Example 98, 4-amino-3-(2-chlorophenylazo)naphthalene-1-sulfonic acid sodium salt]	591
Nc1c(/N=N/c2ccc(OCC3CCCO3)nc2)cc(S(=O)(=O)O)c2ccccc12 (stereo not drawn) [Example 4, 4-amino-3-[6-(tetrahydrofuran-2-ylmethoxy)pyridine-3-ylazo]-1-naphthalenesulfonic acid sodium salt]	407
Cc1cccc(-c2ccc(/N=N/c3cc(S(=O)(=O)O)c4ccccc4c3N)cn2)c1 [Example 9, 4-amino-3-(6-m-tolylpyridine-3-ylazo)naphthalene-1-sulfonic acid sodium salt]	188
Nc1c(/N=N/c2cnc(Cl)c(-c3ccccc3)c2)cc(S(=O)(=O)O)c2ccccc12 [Example 88, 4-amino-3-(6-chloro-5-phenylpyridine-3-ylazo)naphthalene-1-sulfonic acid sodium salt]	348
COC(=O)c1sccc1/N=N/c1cc(S(=O)(=O)O)c2ccccc2c1N [Example 146, methyl 3-(1-amino-4-sulfonaphthalene-2-ylazo)thiophene-2-carboxylate sodium salt]	1290
Nc1c(/N=N/c2ccc(-c3cccc4c3S(=O)(=O)c3ccccc3-4)nc2)cc(S(=O)(=O)O)c2ccccc12 [Example 73, 4-amino-3-[6-(5,5-dioxo-5H-5λ^6-dibenzothiophene-4-yl)pyridine-3-ylazo]naphthalene-1-sulfonic acid sodium salt]	499
Nc1c(/N=N/c2ccc(Cl)cc2Br)cc(S(=O)(=O)O)c2ccccc12 [Example 117, 4-amino-3-(2-bromo-4-chlorophenylazo)naphthalene-1-sulfonic acid sodium salt]	230
Nc1c(/N=N/c2cccc(Cl)c2)cc(S(=O)(=O)O)c2ccccc12 [Example 99, 4-amino-3-(3-chlorophenylazo)naphthalene-1-sulfonic acid sodium salt]	1390
Nc1c(/N=N/c2ccc(-c3ccccc3Cl)nc2)cc(S(=O)(=O)O)c2ccccc12 [Example 22, 4-amino-3-[6-(2-chlorophenyl)pyridine-3-ylazo]naphthalene-1-sulfonic acid sodium salt]	197
Nc1c(/N=N/c2ccc(-c3cccc4c3sc3ccccc34)nc2)cc(S(=O)(=O)O)c2ccccc12 [Example 31, 4-amino-3-(6-dibenzothiophene-4-ylpyridine-3-ylazo)naphthalene-1-sulfonic acid sodium salt]	1030
Nc1c(/N=N/c2ccc(-c3ncco3)nc2)cc(S(=O)(=O)O)c2ccccc12 [Example 36, 4-amino-3-(6-oxazole-2-ylpyridine-3-ylazo)naphthalene-1-sulfonic acid sodium salt]	279
N#Cc1cccc(/N=N/c2cc(S(=O)(=O)O)c3ccccc3c2N)c1 [Example 106, 4-amino-3-(3-cyanophenylazo)naphthalene-1-sulfonic acid sodium salt]	2260
Nc1c(/N=N/c2ccc(-c3c(OCCCO)ccc4c3sc3ccccc34)nc2)cc(S(=O)(=O)O)c2ccccc12 [Example 82, 4-amino-3-{6-[3-(3-hydroxypropoxy)dibenzothiophene-4-yl]pyridine-3-ylazo}naphthalene-1-sulfonic acid sodium salt]	289
Nc1c(/N=N/c2ccc(-c3cncc4ccccc34)cc2)cc(S(=O)(=O)O)c2ccccc12 [Example 127, sodium salt]	295
Nc1c(/N=N/c2ccccc2OCc2cccnc2)cc(S(=O)(=O)O)c2ccccc12 [Example 142, 4-amino-3-[2-(pyridine-3-ylmethoxy)phenylazo]naphthalene-1-sulfonic acid sodium salt]	243
